Test results published in the supplement of paper PMC10307832.

Legend:
Experiment in all cases: relative viability (nuclei count vs DMSO), 5 days (fraction); higher = more cells survive
[1] = compound: Cc1ccc2nc(NCCN)c3ncc(C)n3c2c1 + CC(=O)c1c(C)c2cnc(Nc3ccc(N4CCNCC4)cn3)nc2n(C2CCCC2)c1=O [Palbociclib] (partner 0.5 µM)
How it was run: (§1)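 One day after seeding in 1536-well plates, lung cancer cell lines were dosed by pin tool. Dosing was either single-drug or a fixed anchor-drug dose plus five library-drug doses (not always all listed) in √10 steps. After 5 days, nuclei were stained in one fix-and-stain step and counted on 4× images, and relative viability is the nuclei count of treated wells over that of vehicle wells, given as the median of duplicate plates.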

Salubrinal + Decitabine = compound: O=C(/C=C/c1ccccc1)NC(NC(=S)Nc1cccc2cccnc12)C(Cl)(Cl)Cl [Salubrinal] + Nc1ncn([C@H]2C[C@H](O)[C@@H](CO)O2)c(=O)n1 [Decitabine] (partner 2 µM)
How it was run: as §1

[2] = compound: Cc1ccc2nc(NCCN)c3ncc(C)n3c2c1 + Nc1nc2[nH]cc(CCc3ccc(C(=O)N[C@@H](CCC(=O)O)C(=O)O)cc3)c2c(=O)[nH]1 [Pemetrexed] (partner 0.2 µM)
How it was run: as §1

Salubrinal + Alpelisib = compound: O=C(/C=C/c1ccccc1)NC(NC(=S)Nc1cccc2cccnc12)C(Cl)(Cl)Cl [Salubrinal] + Cc1nc(NC(=O)N2CCC[C@H]2C(N)=O)sc1-c1ccnc(C(C)(C)C(F)(F)F)c1 [Alpelisib] (partner 2 µM)
How it was run: as §1

Row | Cell Line | relative viability ([1]; first compound 0.04 µM) | relative viability ([1]; first compound 0.1265 µM) | relative viability ([1]; first compound 0.4 µM) | relative viability ([1]; first compound 1.265 µM) | relative viability ([1]; first compound 4 µM) | relative viability (Salubrinal + Decitabine; first compound 0.08 µM) | relative viability (Salubrinal + Decitabine; first compound 0.253 µM) | relative viability (Salubrinal + Decitabine; first compound 0.8 µM) | relative viability (Salubrinal + Decitabine; first compound 2.53 µM) | relative viability (Salubrinal + Decitabine; first compound 8 µM) | relative viability ([2]; first compound 0.04 µM) | relative viability ([2]; first compound 0.1265 µM) | relative viability ([2]; first compound 0.4 µM) | relative viability ([2]; first compound 1.265 µM) | relative viability ([2]; first compound 4 µM) | relative viability (Salubrinal + Alpelisib; first compound 0.08 µM) | relative viability (Salubrinal + Alpelisib; first compound 0.253 µM) | relative viability (Salubrinal + Alpelisib; first compound 0.8 µM) | relative viability (Salubrinal + Alpelisib; first compound 2.53 µM) | relative viability (Salubrinal + Alpelisib; first compound 8 µM)
1 | NCI-H838 | 0.216 | 0.233 | 0.233 | 0.223 | 0.264 | 0.493 | 0.471 | 0.462 | 0.417 | 0.464 | 0.277 | 0.247 | 0.252 | 0.302 | 0.419 | 1.03 | 0.629 | 0.969 | 1.01 | 0.942
2 | NCI-H1755 | 0.454 | 0.482 | 0.486 | 0.455 | 0.385 | 0.759 | 0.686 | 0.744 | 0.725 | 0.68 | 0.446 | 0.408 | 0.411 | 0.437 | 0.456 | 1.04 | 0.795 | 1.01 | 0.948 | 0.893
3 | HCC-78 | 0.499 | 0.475 | 0.484 | 0.437 | 0.369 | 0.735 | 0.661 | 0.816 | 0.606 | 0.624 | 0.935 | 0.791 | 0.904 | 0.839 | 0.922 | 0.345 | 0.377 | 0.349 | 0.307 | 0.316
4 | IA-LM | – | – | – | – | – | – | – | – | – | – | – | – | – | – | – | 0.828 | 0.906 | 0.885 | 0.66 | 0.747
5 | NCI-H322M | 0.506 | 0.491 | 0.512 | 0.468 | 0.542 | 0.785 | 0.648 | 0.684 | 0.716 | 0.656 | 0.654 | 0.621 | 0.62 | 0.634 | 0.647 | 0.783 | 0.849 | 0.863 | 0.788 | 0.739
6 | NCI-H3122 | 0.167 | 0.193 | 0.163 | 0.199 | 0.213 | 0.399 | 0.443 | 0.51 | 0.461 | 0.442 | 0.199 | 0.192 | 0.192 | 0.218 | 0.2 | 0.832 | 0.762 | 0.874 | 0.795 | 0.793
7 | COR-L23 | 0.383 | 0.301 | 0.323 | 0.318 | 0.323 | 0.408 | 0.395 | 0.451 | 0.473 | 0.386 | 0.191 | 0.191 | 0.204 | 0.218 | 0.208 | 0.908 | 0.792 | 0.875 | 0.965 | 0.631
8 | NCI-H2087 | 0.253 | 0.271 | 0.174 | 0.286 | 0.323 | 0.448 | 0.266 | 0.295 | 0.277 | 0.257 | 0.725 | 0.637 | 0.599 | 0.711 | 0.575 | 1.14 | 0.861 | 1.05 | 1.33 | 1.09
9 | LC-2-ad | 0.469 | 0.524 | 0.482 | 0.51 | 0.452 | 0.751 | 0.63 | 0.792 | 0.771 | 0.813 | 0.303 | 0.276 | 0.268 | 0.275 | 0.291 | 1.01 | 0.784 | 0.92 | 0.881 | 0.831
10 | NCI-H1915 | 0.512 | 0.51 | 0.39 | 0.552 | 0.488 | 0.249 | – | 0.268 | 0.248 | 0.246 | 0.511 | 0.502 | 0.463 | 0.519 | 0.442 | 1.06 | 1.08 | 1.11 | 1.06 | 1.04
11 | NCI-H2023 | 0.369 | 0.366 | 0.366 | 0.433 | 0.238 | 0.238 | 0.219 | 0.236 | 0.246 | 0.221 | 0.254 | 0.241 | 0.235 | 0.503 | 0.171 | 0.679 | 0.586 | 0.688 | 0.587 | 0.488
12 | ChaGo-K-1 | 0.929 | 0.919 | 0.919 | 0.891 | 0.907 | 0.574 | 0.523 | 0.56 | 0.523 | 0.467 | 0.248 | 0.267 | 0.256 | 0.252 | 0.253 | – | – | – | – | –
13 | NCI-H522 | 0.83 | 1.17 | 1.01 | 1.04 | 0.87 | 0.711 | 1.19 | 0.617 | 0.705 | 0.729 | 1.02 | 1.24 | 0.766 | 1.28 | 0.95 | – | – | – | – | –
14 | NCI-H1299 | – | – | – | – | – | – | – | – | – | – | – | – | – | – | – | 1.04 | 1.03 | 1.05 | 1.15 | 0.982
15 | NCI-H1650 | 0.303 | 0.375 | 0.324 | 0.349 | 0.226 | 0.522 | 0.453 | 0.417 | 0.476 | 0.455 | 0.352 | 0.386 | 0.349 | 0.376 | 0.332 | – | – | – | – | –
16 | SW 900 | – | 0.522 | 0.587 | 0.464 | 0.589 | 0.483 | 0.466 | 0.512 | 0.419 | 0.519 | – | 0.49 | 0.444 | 0.464 | 0.489 | – | – | – | – | –
17 | NCI-H596 | – | – | – | – | – | 1.1 | 1.02 | 1.18 | 0.969 | 0.863 | 0.484 | 0.447 | 0.506 | 0.515 | 0.49 | 0.55 | 0.426 | 0.441 | 0.572 | 0.528
18 | NCI-H727 | 0.648 | – | 0.603 | 0.691 | 0.722 | 0.802 | 0.876 | 0.847 | 0.837 | 0.825 | – | – | – | – | – | 0.768 | 0.453 | 0.63 | 0.602 | 0.561
19 | A549 | – | – | – | – | – | – | 0.253 | 0.245 | 0.257 | 0.246 | – | – | – | – | – | 0.726 | 0.806 | 0.755 | 0.76 | 0.616
20 | NCI-H1563 | – | – | – | – | – | – | – | – | – | – | 0.861 | 0.78 | 0.877 | 0.718 | 0.705 | 0.882 | 0.939 | 1.1 | 0.925 | 0.878
21 | ABC-1 | 0.785 | 0.792 | 0.887 | 0.649 | 0.538 | 1.42 | 0.915 | 1.14 | 1.01 | 1.13 | – | – | – | – | – | 1 | 0.952 | 1.2 | 1 | 1.12
